In assay [1] the target is T1, sEH enzyme (human recombinant) (Homo sapiens, UniProt P34913).
T1 construct: purchased Cayman Chemical
T1 sequence (P34913 1-555): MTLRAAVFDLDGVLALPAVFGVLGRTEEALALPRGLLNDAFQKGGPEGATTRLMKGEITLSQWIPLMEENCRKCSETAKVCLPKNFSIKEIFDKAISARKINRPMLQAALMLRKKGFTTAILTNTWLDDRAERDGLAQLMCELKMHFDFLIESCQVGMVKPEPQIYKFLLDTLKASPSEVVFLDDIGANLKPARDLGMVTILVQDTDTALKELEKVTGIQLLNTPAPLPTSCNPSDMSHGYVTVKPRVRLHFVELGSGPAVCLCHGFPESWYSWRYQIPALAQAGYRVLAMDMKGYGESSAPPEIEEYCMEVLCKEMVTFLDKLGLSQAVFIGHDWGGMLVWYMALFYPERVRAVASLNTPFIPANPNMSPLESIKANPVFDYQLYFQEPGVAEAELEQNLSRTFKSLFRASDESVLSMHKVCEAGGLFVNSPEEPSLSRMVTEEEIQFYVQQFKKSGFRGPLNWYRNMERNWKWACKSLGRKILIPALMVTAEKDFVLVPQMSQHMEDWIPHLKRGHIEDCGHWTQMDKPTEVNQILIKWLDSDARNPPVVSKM
Description: in vitro IC50 of soluble epoxide hydrolase (sEH) by fluorescence analysis. Format: biochemical. How it is done:
The benzothiazole skeleton compounds according to the above formula I of the present invention were tested for the in vitro sEH enzyme activity by fluorescence analysis. […] 12 μL of sEH enzyme (human recombinant, 0.5 mg/mL, Cayman Chemical) was diluted with 588 μL of buffer (25 mM bis-Tris, pH 7.0). […] The inhibitions at different concentrations for the compound were respectively measured in accordance with the inhibition assay, to calculate IC50.

The target of assay [2] is T1, sEH enzyme (human recombinant). Description: in vitro sEH enzyme activity by fluorescence analysis, single concentration inhibition. Type of assay: biochemical. The settings on record: read-out: sEH % inhibition, @ 0.1 μM. How it is done: The benzothiazole skeleton compounds (concentration: 0.1 μM) according to the above formula I of the present invention were tested for the in vitro sEH enzyme activity by fluorescence analysis.
12 μL of sEH enzyme (human recombinant, 0.5 mg/mL, Cayman Chemical) was diluted with 588 μL of buffer (25 mM bis-Tris, pH 7.0). The fluorescent substrate was PHOME (cyano-(6-methoxy-naphthalen-2-yl)-methyl (3-phenyl-oxiranyl)-acetate) in DMSO (10 μM, Cayman Chemical). The compound to be tested was dissolved in 100% DMSO at a concentration of 4 μM. 185 μL of buffer (25 mM bis-Tris, pH 7.0), 5 μL of compound solution, and 5 μL of diluted sEH enzyme were added to the wells of a 96-well plate, and finally 5 μL of substrate solution was added to initiate the reaction. After incubating at 37° C. for 15 min, the fluorescence signal was measured with a microplate reader (excitation wavelength 330 nm, emission wavelength 465 nm).
Inhibition (%)=(F0−F1)/(F0)×100.

The subject of assay [3] is carrageenan-induced paw swelling in KM mice. Briefly: Measurement of anti-inflammatory effect, carrageenan-induced paw swelling. Type of assay: in vivo. The settings on record: intraperitoneal injection 1 hour before carrageenan, FIG. 3. The procedure:
1 hour in advance, the mice were intraperitoneally injected with the solutions of the compounds of Examples 12, 18, 27, and 40 (10% PEG 400, 10% Tween 80) or the blank solvent, respectively. Taking the initial paw thickness of the mice before modeling as 100%, the changes in the paw thickness of the mice were measured.
Background: Carrageenan injected into the paw causes an acute inflammation.

Assay [4] has as its system streptozotocin STZ diabetic model Balb/c mice. Description: Measurement of hypoglycemic effect, streptozotocin diabetic model. Format: in vivo. The settings on record: intraperitoneal once a day, after two weeks, FIG. 4. The procedure:
Male Balb/c mice (6 to 8 weeks old) (SPF (Beijing) Biotechnology Co., Ltd.) were intraperitoneally injected with streptozotocin STZ (40 mg/kg) once a day for 5 consecutive days, to prepare a diabetic model (Like A A, Rossini A A. Streptozotocin-induced pancreatic insulitis: new model of diabetes mellitus. Science, 1976, 193(4251):415-7). The mice after modeling were intraperitoneally injected with the solution of compound of Example 12 once a day.

Assay [5] relates to traumatic brain injury model SD rats. Briefly: Measurement of brain injury protection, traumatic brain injury model (modified Feeney method). Type of assay: in vivo. How it is done:
45 male SD rats (6 to 8 weeks old) (SPF (Beijing) Biotechnology Co., Ltd.) were divided into the sham group, blank solvent group, and dosing group. 72 hours after intraperitoneally injecting the compound of Example 12 or blank solvent, a traumatic brain injury model was established using the modified Feeney method (Marmarou A, Foda M A, van den Brink W, et al., A new model of diffuse brain injury in rats. Part I: Pathophysiology and biomechanics. Journal of Neurosurgry, 1994, 80(2):291 to 300.). 23 hours after model establishment, three […] in each group were injected with Evans blue solution through the tail vein, and after 1 hour of circulation, the mice were decapitated and the brain was taken out to determine the content of Evans blue (EB), so as to study the permeability. Another three rats were taken to measure the water content in brain.

Assay [6] deals with carrageenan inflammatory pain model SD rats. Description: Measurement of analgesic effect, carrageenan inflammatory pain model, hot plate. Format: in vivo. Conditions: intragastric suspension 15 mg/mL, 1 hour before modeling, FIG. 6. The procedure:
Male SD rats (6 to 8 weeks old) (SPF (Beijing) Biotechnology Co., Ltd.) were subcutaneously injected with 50 μL of 1% λ-carrageenan saline solution at planta to prepare an inflammatory pain model (Rose T E, Morisseau C, Liu J Y, et al. 1-Aryl-3-(1-acylpiperidin-4-yl)urea inhibitors of human and murine soluble epoxide hydrolase: structure-activity relationships, pharmacokinetics, and reduction of inflammatory pain. J Med Chem, 2010, 53(19): 7067-7075). The compounds of Examples 12 and 40 were added to 0.5% sodium carboxymethylcellulose solution and ground to prepare a suspension with a concentration of 15 mg/mL. 1 hour before modeling, the rats were intragastrically administrated. The changes in the paw withdrawal time of rats were measured with a hot plate dolorimeter.

Assay [7] relates to lipopolysaccharide-injected KM mice, forced swimming test. Description: Measurement of antidepressant effect, lipopolysaccharide / forced swimming test. Format: in vivo. Conditions: subcutaneous injection 23 hours after lipopolysaccharide, test 1 hour later, FIG. 7. The procedure:
Male KM mice (6 to 8 weeks old) (SPF (Beijing) Biotechnology Co., Ltd.) swam in advance for 10 min, and were injected with lipopolysaccharide (0.5 mg/kg). After 23 hours, the mice were subcutaneously injected with the solutions of the compounds of Examples 12 and 40 or the blank solvent. After 1 hour, the mice were subjected to the forced swimming test for 6 min, and the immobility time (s) in later 4 minute for the mice in each group was recorded.

The subject of assay [8] is unilateral ureteral obstruction (UUO) C57BL/6J mice. Briefly: Measurement of anti-fibrosis effect, unilateral ureteral obstruction (UUO) model. Format: in vivo. The settings on record: intraperitoneal 30 mg·kg−1·d−1, 7 days after modeling. The procedure: Male C57BL/6J mice (6 to 8 weeks old) (SPF (Beijing) Biotechnology Co., Ltd.) were divided into 3 groups: sham group, unilateral ureteral obstruction (UUO) group, and UUO+Ex. 16 compound group. After the mice were anesthetized, the left ureter was ligated and cut to create a model. In the sham group, the ureter was only isolated without ligation. The experimental animals were administrated 72 hours before modeling, and the aqueous solution of Ex. 16 compound (10% PEG400, 10% Tween 80, concentration: 9 mg/mL) was intraperitoneally injected at a dose of 30 mg·kg^−1·d^−1; and the sham group and UUO group were intraperitoneally injected with an equal volume of blank solvent. 7 days after modeling, the animals were sacrificed, and samples were taken for testing.

Where [9] appears, read: human recombinant sEH, PHOME substrate, read-out: IC50.
Setting [10] is: compound 0.1 μM, human recombinant sEH, PHOME substrate, 37° C. 15 min.

Where two headings read alike, the source gives them in different places.

A word on the IC50: it is the midpoint of a concentration-inhibition curve. Usually inhibition stands for the share of the control response that was lost under treatment. As for `Nc1nc2ccc(N(CCN3CCOCC3)C(=O)Nc3ccc(C(F)(F)F)cc3)cc2s1` [Example 13, 1-(2-aminobenzo[d]thiazol-6-yl)-1-[2-(4-morpholinyl)ethyl]-3-(4-trifluoromethylphenyl)urea], the IC50 in assay [1] (setting [9]) is 2.8 nM. The inhibition at 0.1 µM in assay [2] (setting [10]) came to 63.9%.

Turning to `CC(=O)Nc1nc2ccc(N(CCN3CCOCC3)C(=O)Nc3ccc(Cl)cc3)cc2s1` [Example 30, 1-(2-acetamidobenzo[d]thiazol-6-yl)-1-[2-(4-morpholinyl)ethyl]-3-(4-chlorophenyl)urea], the 50% inhibitory concentration (IC50) in assay [1] (setting [9]) came out at 1.9 nM. For the same molecule, the inhibition at 0.1 µM in assay [2] (setting [10]) stood at 27.5%.

Consider `Nc1nc2ccc(NC(=O)Nc3ccc(Cl)cc3)cc2s1` [Example 1, 1-(2-aminobenzo[d]thiazol-6-yl)-3-(4-chlorophenyl)urea], for which the IC50 in assay [1] turned out to be 4.8 nM. The inhibition at 0.1 µM in assay [2] (setting [10]) turned out to be 76.1%.

As for `O=C(Cc1ccccc1)Nc1nc2ccc(N(CCN3CCOCC3)C(=O)Nc3ccc(Cl)cc3)cc2s1` [Example 27, 1-(2-phenylacetamidobenzo[d]thiazol-6-yl)-1-[2-(4-morpholinyl)ethyl]-3-(4-chlorophenyl)urea], in assay [3], the “carrageenan-induced paw swelling (paw thickness)” value (shortened to “carrageenan-induced paw swelling”) is “significantly inhibit” and the “effect on paw swelling compared with celecoxib” value (from here on “effect … compared with celecoxib”) is given as “better than that of celecoxib”. For the same molecule, the IC50 in assay [1] was 0.02 nM. For the same molecule, the inhibition at 0.1 µM in assay [2] (setting [10]) was determined as 79.4%.

With `Nc1nc2ccc(N(CCN3CCOCC3)C(=O)Nc3ccc(Cl)cc3)cc2s1` [Example 12, 1-(2-aminobenzo[d]thiazol-6-yl)-1-[2-(4-morpholinyl)ethyl]-3-(4-chlorophenyl)urea], in assay [4], the blood glucose entry is given as “significantly lower than that of the model group” and the glucose tolerance entry was “higher than that of the model group”. Besides, the “Water content in brain (%)” value in assay [5] (30 mg/kg intraperitoneal, 72 hours before traumatic brain injury, * p < 0.05 vs blank solvent group) was 79.46 ± 0.68 * %. Besides, the “EB content (μg/g)” value in assay [5] (30 mg/kg intraperitoneal, Evans blue in brain, 24 hours after model, * p < 0.05 vs blank solvent group) is 25.23 ± 1.63 * μg/g. Besides, the “water content in brain (in words)” value in assay [5] (traumatic brain injury rats, text summary of Table 4) was “reduce the water content”. Moreover, the “paw withdrawal time in hot plate dolorimeter” value in assay [6] is on record as “significantly prolong the paw withdrawal time”. In assay [3], the “carrageenan-induced paw swelling” value is “significantly inhibit” and the “effect … compared with celecoxib” value is given as “better than that of celecoxib”. In assay [1] (setting [9]), the IC50 stood at 4.1 nM. Besides, in assay [2], the inhibition at 0.1 µM was 68.7%. In addition, the “immobility time in forced swimming” value in assay [7] was “significantly reduce the immobility time”.

Regarding `O=C(Nc1ccc(Cl)cc1)Nc1ccc2nc(NC(=O)Nc3ccc(Cl)cc3)sc2c1` [Example 7, 1,1′-(benzo[d]thiazol-2,6-diyl)bis[3-(4-chlorophenyl)urea]], the IC50 in assay [1] (setting [9]) came to 9.2 nM. The inhibition at 0.1 µM in assay [2] (setting [10]) came out at 59.9%.

For the molecule `Nc1nc2ccc(NC(=O)NC34C[C@H]5C[C@@H](C3)C[C@@H](C4)C5)cc2s1` [Example 4, 1-(2-aminobenzo[d]thiazol-6-yl)-3-[(3s,5s,7s)-adamantan-1-yl]urea], in assay [1], the IC50 came out at 122 nM. The inhibition at 0.1 µM in assay [2] (setting [10]) is 77.3%.

With `CN(C)CCN(C(=O)Nc1ccc(Cl)cc1)c1ccc2nc(N)sc2c1` [Example 25, 1-(2-aminobenzo[d]thiazol-6-yl)-1-[2-(N,N-dimethylamino)ethyl]-3-(4-chlorophenyl)urea], the IC50 in assay [1] (setting [9]) was found to be 27.1 nM. Further, the inhibition at 0.1 µM in assay [2] (setting [10]) stood at 70.4%.

As to `CCc1ccc(NC(=O)N(CCN2CCOCC2)c2ccc3nc(N)sc3c2)cc1` [Example 18, 1-(2-aminobenzo[d]thiazol-6-yl)-1-[2-(4-morpholinyl)ethyl]-3-(4-ethylphenyl)urea], in assay [3], the “carrageenan-induced paw swelling” value was “significantly inhibit” and the “effect … compared with celecoxib” value is on record as “better than that of celecoxib”. The IC50 in assay [1] came out at 6.7 nM. In addition, the inhibition at 0.1 µM in assay [2] (setting [10]) was determined as 84.7%.

Take `Nc1nc2ccc(N(CCN3CCOCC3)C(=O)Nc3ccc(F)c(Br)c3)cc2s1` [Example 16, 1-(2-aminobenzo[d]thiazol-6-yl)-1-[2-(4-morpholinyl)ethyl]-3-(3-bromo-4-fluorophenyl)urea]: in assay [8] (FIG. 1), the “level of EETs in mouse kidney tissue” value was “maintain the level of EETs”. In assay [8] (FIG. 2), the collagen deposition entry is on record as “reduce the collagen deposition” and the fibrotic areas result is “decrease the fibrotic areas”. Further, the IC50 in assay [1] (setting [9]) is 0.25 nM. Moreover, in assay [2] (setting [10]), the inhibition at 0.1 µM was determined as 79.7%.

For the molecule `CN1CCN(CCN(C(=O)Nc2ccc(C(F)(F)F)cc2)c2ccc3nc(N)sc3c2)CC1` [Example 23, 1-(2-aminobenzo[d]thiazol-6-yl)-1-[2-(4-methylpiperazin-1-yl)ethyl]-3-(4-trifluoromethylphenyl)urea], the inhibition at 0.1 µM in assay [2] (setting [10]) worked out at 43.7%.

In the case of `CCOC(=O)CNc1nc2ccc(N(CCN3CCOCC3)C(=O)Nc3ccc(Cl)cc3)cc2s1` [Example 29], the IC50 in assay [1] (setting [9]) amounted to 2.6 nM. For the same molecule, the inhibition at 0.1 µM in assay [2] (setting [10]) stood at 69%.

The values are drawn from patent US20230219911A1, “BENZOTHIAZOLE DERIVATIVES AND USES THEREOF” (SHENYANG PHARMACEUTICAL UNIVERSITY, priority 2020, published 2023).
